Among the data in patent US6479487B1, “6, 9-disubstituted 2-[trans-(4-aminocyclohexyl)amino] purines” (Aventis Pharmaceuticals Inc., priority 1998, dated 2002) are IC50 values, retold here.

The target in test [1] is T1, cdk2/cyclin E (Homo sapiens, UniProt P24941).
T1 construct: made in house; host or cells: insect cells (baculovirus co-infection)
As to the kind of experiment: Cyclin-Dependent Kinase 2 Assay (cdk2/cyclin E, GST-Rb substrate). Format: biochemical. The conditions noted are these: recombinant cdk2/cyclin E, 10 μM ATP, 30 min at 30° C., several values in a cell = separate determinations, read-out: CDK-2 Inhibition IC50. As for the experimental part:
Substrate: GST-Rb as described above for cdk4/cyclin D1
Assay conditions for cdk2/cyclin E were identical to those for cdk4/cyclin D1 including the substrate. The concentration of recombinant cdk2/cyclin E in the assay was 0.1 μg per 100 μl assay. Incubation was for 30 min at 30° C.

Test [2] has as its target T2, cdk4/cyclin D1 (Homo sapiens, UniProt P11802).
T2 construct: made in house; host or cells: Sf9 insect cells (Bac-to-Bac baculovirus, pFastBac)
As to the kind of experiment: Cyclin-dependent Kinase 4 Assay (cdk4/cyclin D1, GST-Rb substrate). The test is classed as biochemical. Particulars: cdk4/cyclin D1 insect cell lysate, 10 μM ATP, 30 min at 37° C., several values = separate determinations, read-out: CDK4 Inhibition IC50. On the procedure:
The IC50 values for cdk4 inhibition were by the following method:
The transformed bacteria were grown overnight to saturation, then diluted in YT broth and incubated at 37° C. for 2 h. The protein was induced by incubation with 0.1 mM isopropylthioglycoside for 3 h. Following sedimentation by centrifugation, the cells were lysed by sonication in STE buffer ([…] NaCl, 10 mM Tris, pH 8.0, 1 mM EDTA) containing 10% sarkosyl. Particulate matter was removed by centrifugation and the lysate was incubated with glutathione-Sepharose at 4° C. The beads were washed with kinase buffer and then quantitation of Coomassie blue-stained proteins separated by SDS-PAGE was performed using a protein standard of known concentration.
The cDNA for human cyclin D1 was cloned by RT PCR using […] from MCF-7 cells. […] Bacmid DNA was used to transfect Sf9 insect cells to produce recombinant virus. Following plaque purification of the virus, the viral preparations were amplified until high titer stocks were acheived.
Lysates were prepared by lysis of Sf9 cells coinfected with cdk4 and cyclin D1 in 50 mM HEPES, pH 7.5, 10 mM MgCl2, 1 mM DTT, 0.1 mM phenylmethylsulfonyl fluoride, 5 μg/ml aprotinin, and 5 μg/ml leupeptin using a PARR bomb under 500 p.s.i nitrogen pressure for 5 min at 4° C. Insoluble material was sedimented at 10,000×g for 20 min at 4° C. Glycerol was added to the supernatant to 10% and stored at −80° C. in aliquots.
Pre-wet Millipore Multiscreen 96-well filter plates (0.65 μm Durapore filters) with 200 μl kinase buffer (50 mM HEPES, pH 7.5, 10 mM MgCl2, 1 mM EGTA). GST-Rb (0.5 μg) bound to glutathione-Sepharose beads is added in 50 μl per well and the solution removed by application of vacuum. […] Add 0.1 μg cdk4/cyclin D1 (insect cell lysate) to initiate assay. Incubate 30 min at 37° C. Terminate reaction by filtration on Millipore Vacuum Manifold. Wash four times with TNEN (20 mM Tris, pH 8.0, 100 mM Na Cl, 1 mM EDTA, 0.5% nonidet P-40). After drying the plates at room temperature, the filter plates were placed in adapter plates (Packard) and 40 μl of Microscint-O® (Packard) was added to each well. Top Seal A film was used to cover the plates before counting in a Top Count Scintillation Counter.

Test [3] deals with MDA-MB-435. As to the kind of experiment: In vitro tumor cell proliferation, MDA-MB-435. The test is classed as cell-based. The conditions noted are these: values given with an undefined *, read-out: In vitro Tumor Cell Proliferation (IC50, μM) Breast MDA-MB-435. On the procedure:
(§1) The proliferation of tumor cells was measured using a sulforhodamine B assay as described in Skehan, P., et al., J. Natl. Cancer Inst. […] Tumor cells were harvested with trypsin-EDTA, cells that excluded trypan blue were counted, added to 96-well plates and incubated overnight at 37° C. Drug was added to the wells following dilution in culture medium. Three days later, the medium was removed and replenished with medium containing fresh drug and incubated an additional 4 days. The cells were then fixed with 0.1 ml 10% trichloroacetic acid for 60 min at 4° C. The plates were rinsed five times with tap water, air-dried and stained for 30 min with 0.4% sulforhodamine B in 1% acetic acid and air-dried.
(§2) Alternatively, the CyQUANT cell proliferation assay was used to quantitate cell proliferation.
(§3) Alternatively, the CyQUANT cell proliferation assay was used to quantify tumor cell proliferation. Tumor cells were harvested with trypsin-EDTA, cells that excluded trypan blue were counted, added to 96-well plates and incubated overnight at 37° C. Drug was added to the wells following dilution in culture medium. Three days later the medium was removed and the plates frozen at −80° C. for at least 30 minutes.

Test [4] deals with A549. Put plainly: In vitro tumor cell proliferation, A549. The test is classed as cell-based, human. Particulars: many values given with an undefined *, read-out: In vitro Tumor Cell Proliferation (IC50, μM) Lung A549. As for the experimental part:
as §1, §2, §3

For test [5], the system named is HT-29. As to the kind of experiment: In vitro tumor cell proliferation, HT-29. Particulars: many values given with an undefined *, read-out: In vitro Tumor Cell Proliferation (IC50, μM) Colon HT-29. The test is classed as cell-based, human. On the procedure: as §1, §2, §3
HT-29 is a human colon adenocarcinoma, moderately well-differentiated grade II (HTB 38);

For test [6], the system named is PC-3. Put plainly: In vitro tumor cell proliferation, PC-3. The test is classed as cell-based, human. Particulars: many values given with an undefined *, read-out: In vitro Tumor Cell Proliferation (IC50, μM) Prostate PC-3. As for the experimental part:
as §1, §2, §3

The subject of test [7] is DMS-114. Put plainly: In vitro tumor cell proliferation, DMS-114. The test is classed as cell-based, human. The conditions noted are these: many values given with an undefined *, read-out: In vitro Tumor Cell Proliferation (IC50, μM) Lung DMS-114. As for the experimental part:
DMS-1 14: human small cell lung carcinoma;
as §1, §2, §3

Test [8] concerns Colo-205. Put plainly: In vitro tumor cell proliferation, Colo-205. The conditions noted are these: values given with an undefined *, read-out: In vitro Tumor Cell Proliferation (IC50, μM) Colon Colo-205. Format: cell-based. On the procedure: as §1, §2, §3
For test [9], the system named is DU145. As to the kind of experiment: In vitro tumor cell proliferation, DU145. The test is classed as cell-based, human. The conditions noted are these: many values given with an undefined *, read-out: In vitro Tumor Cell Proliferation (IC50, μM) Prostate DU145. On the procedure:
as §1, §2, §3

The subject of test [10] is MDA-MB-231. As to the kind of experiment: In vitro tumor cell proliferation, MDA-MB-231. Particulars: sulforhodamine B or CyQUANT assay, many values given with an undefined *, read-out: In vitro Tumor Cell Proliferation (IC50, μM) Breast MDA-MB-231. The test is classed as cell-based, human. As for the experimental part: as §1, §2, §3
MDA-MB-23 1 is a human breast adenocarcinoma, hormone-independent (HTB 26);

[11] abbreviates: Homo sapiens, MDA-MB-435, MDA-MB-435.
Where [12] appears, read: Homo sapiens, MDA-MB-231, MDA-MB-231.

Where “and” joins values, the source holds several entries; their conditions need not be identical. Equal entries are not always repeated. Structures can show the parent of a compound that is named as a salt. Where two headings read alike, the source gives them in different places.

T2 sequence (P11802 whole entry): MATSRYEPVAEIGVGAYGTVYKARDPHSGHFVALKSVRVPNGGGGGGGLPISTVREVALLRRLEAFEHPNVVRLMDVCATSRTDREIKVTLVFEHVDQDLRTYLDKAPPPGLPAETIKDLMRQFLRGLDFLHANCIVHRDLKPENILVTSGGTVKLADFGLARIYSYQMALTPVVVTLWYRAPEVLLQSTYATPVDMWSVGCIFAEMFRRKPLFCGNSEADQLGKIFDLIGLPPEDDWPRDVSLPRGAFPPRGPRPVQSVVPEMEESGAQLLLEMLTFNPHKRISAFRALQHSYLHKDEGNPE
T2 sequence (P24385 whole entry partner): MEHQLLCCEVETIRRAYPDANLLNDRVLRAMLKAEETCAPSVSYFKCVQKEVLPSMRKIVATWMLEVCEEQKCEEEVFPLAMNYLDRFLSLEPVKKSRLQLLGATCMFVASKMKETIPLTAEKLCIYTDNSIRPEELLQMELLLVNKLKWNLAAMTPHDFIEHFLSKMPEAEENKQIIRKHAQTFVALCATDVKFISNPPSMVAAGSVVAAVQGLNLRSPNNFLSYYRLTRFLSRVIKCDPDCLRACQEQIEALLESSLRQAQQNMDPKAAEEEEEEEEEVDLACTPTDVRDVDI

In the case of `NC1CCC(Nc2nc(NC(c3ccc(Cl)cc3)C3CC3)c3ncn(C4CCCC4)c3n2)CC1` (racemic) [Example 24, (+/−)-2-[Trans-(4-aminocyclohexyl)amino]-6-[(α-cyclopropyl-4-chlorobenzyl)amino]-9-cyclopentylpurine dihydrochloride], the IC50 is 27100 nM in test [1]; 4600 nM and 10000 nM in [2].
On to `N[C@H]1CC[C@H](Nc2nc(NNc3ccccc3Cl)c3ncn(C4CCCC4)c3n2)CC1` [Example 2, 2-[Trans-(4-aminocyclohexyl)amino]-6-(2-chlorophenylhydrazino)-9-cyclopentylpurine dihydrochloride], for which the IC50 in test [3] (setting [11]) was 8 µM; in [3] (MDA-MB-435, dihydrochloride), 8.2 µM; in test [1], 120 nM and 100 nM; in test [4] (A549, dihydrochloride) it was 2.2 µM and 1.8 µM; in [4] (Homo sapiens, A549, A549) it was 1.7 µM; in [2], 1300 nM and 1000 nM. Besides, the IC50 in test [5] (HT-29, dihydrochloride) is 2.5 µM and 4.1 µM; in [5] (Homo sapiens, HT-29, HT-29) it was 2.4 µM.
As for `COc1cccc(OC)c1CNc1nc(N[C@H]2CC[C@H](N)CC2)nc2c1ncn2C1CCCC1` [Example 4, 2-[Trans-(4-aminocyclohexyl)amino]-6-[(2,6-dimethoxybenzyl)amino]-1-9-cyclopentylpurine dihydrochloride], the IC50 in [1] was 19400 nM; in test [2] it was 46000 nM and > 100000 nM.
Regarding `COCCOCCCNc1nc(N[C@H]2CC[C@H](N)CC2)nc2c1ncn2C1CCCC1` [Example 15, 2-[Trans-(4-aminocyclohexyl)amino]-6-[3-(2-methoxyethoxy)propylamino]-9-cyclopentylpurine dihydrochloride], the IC50 in test [6] (Homo sapiens, PC-3, PC-3) was found to be 1.4 µM; in [6] (PC-3, dihydrochloride) it was 1.2 µM; in [7] (DMS-114, dihydrochloride), 1.9 µM; in test [7] (Homo sapiens, DMS-114, DMS-114) it was 1.8 µM; in test [8] (Colo-205, dihydrochloride), 1.7 µM; in test [8] (Homo sapiens, COLO 205, Colo-205) it was 1.6 µM. The IC50 in [1] amounted to 16 nM; in test [2], 40 nM; in test [5] (Homo sapiens, HT-29, HT-29) it was 2.1 µM.
On to `COCCNc1nc(N[C@H]2CC[C@H](N)CC2)nc2c1ncn2C1CCCC1` [Example 16, 2-[Trans-(4-aminocyclohexyl)amino]-6-(2-methoxyethylamino)-9-cyclopentylpurine dihydrochloride], for which the IC50 in test [7] (DMS-114, dihydrochloride) is 4.4 µM; in test [7] (Homo sapiens, DMS-114, DMS-114) it was 4.8 µM; in test [3] (setting [11]) it was 9.2 µM; in test [3] (MDA-MB-435, dihydrochloride), 7.6 µM; in test [1], 55 nM and 30 nM; in test [2], 230 nM and 280 nM. Besides, the IC50 came to 6.3 µM in test [5] (HT-29, dihydrochloride); 6.4 µM in test [5] (Homo sapiens, HT-29, HT-29); 3.3 µM in test [9] (DU145, dihydrochloride); 2.5 µM in test [9] (Homo sapiens, DU-145, DU145); 4.7 µM in [10] (setting [12]); 4.1 µM in [10] (MDA-MB-231, dihydrochloride).
Take `CCN(CC)CCCNc1nc(N[C@H]2CC[C@H](N)CC2)nc2c1ncn2C1CCCC1` [Example 18, 2-[Trans-(4-aminocyclohexyl)amino]-6-[(3-diethylamino)propylamino]-9-cyclopentylpurine dihydrochloride]: the IC50 in test [1] came out at 1000 nM; in test [2], 1400 nM.
The corresponding values for `COc1cccc(CNc2nc(N[C@H]3CC[C@H](N)CC3)nc3c2ncn3C(C)C)c1OC` [Example 30, 2-[Trans-(4-aminocyclohexyl)amino]-6-[(2.3-dimethoxybenzyl)amino]-9-(2-propyl)purine dihydrochloride] are 1400 nM and 2400 nM.
On to `N[C@H]1CC[C@H](Nc2nc(NCCNc3ccccc3)c3ncn(C4CCCC4)c3n2)CC1` [Example 31, 2-[Trans-(4-aminocyclohexyl)amino]-6-[2-(phenylamino~ethylamino]-9-cyclopentylpurinetrihydrochloride], for which the IC50 in test [6] (Homo sapiens, PC-3, PC-3) came to 2.3 µM; in test [6] (PC-3, trihydrochloride), 1.9 µM; in [7] (DMS-114, trihydrochloride) it was 1.8 µM; in [7] (Homo sapiens, DMS-114, DMS-114), 2.4 µM; in test [3] (setting [11]), 3.1 µM; in test [3] (MDA-MB-435, trihydrochloride), 2.6 µM. For the same compound, the IC50 in test [1] is 400 nM; in test [4] (A549, trihydrochloride), 2.1 µM; in test [4] (Homo sapiens, A549, A549), 1.6 µM; in [2], 100 nM; in test [5] (HT-29, trihydrochloride) it was 2.5 µM; in test [5] (Homo sapiens, HT-29, HT-29), 2.4 µM. The IC50 was 1.8 µM in test [9] (DU145, trihydrochloride); 1.9 µM in [9] (Homo sapiens, DU-145, DU145); 2.1 µM in test [10] (setting [12]); 2.4 µM in test [10] (MDA-MB-231, trihydrochloride).
